Reference: PubChem BioAssay AID2060483 (Molecular Pharmacology Branch, DTP, NCI, 2025)

Test system: K24384-001-R-PDC complex spheroids, viability
Test: Anticancer human tumor K24384-001-R-PDC patient-derived pancreatic adenocarcinoma cell line growth inhibition [GQUAD]
Conditions: for IC50: curve of first compound; for viability, T/C: stronger effect = lower value
In short: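 Multi-cell-type spheroids of tumor cells with HUVEC and mesenchymal stem cells, treated with drug combinations. Concentrations descend in half-log steps from near clinical Cmax, or from 10 microM where Cmax is unknown; viability read-out.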

[1] = second compound 0.0316 µM, first compound 0.0316 µM
[2] = second compound 0.0316 µM, first compound 0.1 µM
[3] = second compound 0.0316 µM, first compound 0.316 µM
[4] = second compound 0.0316 µM, first compound 1 µM
[5] = second compound 0.0316 µM, first compound 3.16 µM
[6] = second compound 0.0316 µM, first compound 10 µM
[7] = second compound 0.1 µM, first compound 0.0316 µM
[8] = second compound 0.1 µM, first compound 0.1 µM
[9] = second compound 0.1 µM, first compound 0.316 µM
[10] = second compound 0.1 µM, first compound 1 µM
[11] = second compound 0.1 µM, first compound 3.16 µM
[12] = second compound 0.1 µM, first compound 10 µM
[13] = second compound 0.316 µM, first compound 0.0316 µM
[14] = second compound 0.316 µM, first compound 0.1 µM
[15] = second compound 0.316 µM, first compound 0.316 µM
[16] = second compound 0.316 µM, first compound 1 µM
[17] = second compound 0.316 µM, first compound 3.16 µM
[18] = second compound 0.316 µM, first compound 10 µM
[19] = second compound 1 µM, first compound 0.0316 µM
[20] = second compound 1 µM, first compound 0.1 µM
[21] = second compound 1 µM, first compound 0.316 µM
[22] = second compound 1 µM, first compound 1 µM
[23] = second compound 1 µM, first compound 3.16 µM
[24] = second compound 1 µM, first compound 10 µM
[25] = second compound 3.16 µM, first compound 0.0316 µM
[26] = second compound 3.16 µM, first compound 0.1 µM
[27] = second compound 3.16 µM, first compound 0.316 µM
[28] = second compound 3.16 µM, first compound 1 µM
[29] = second compound 3.16 µM, first compound 3.16 µM
[30] = second compound 3.16 µM, first compound 10 µM
[31] = second compound 10 µM, first compound 0.0316 µM
[32] = second compound 10 µM, first compound 0.1 µM
[33] = second compound 10 µM, first compound 0.316 µM
[34] = second compound 10 µM, first compound 1 µM
[35] = second compound 10 µM, first compound 3.16 µM
[36] = second compound 10 µM, first compound 10 µM
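Also: spheroids exposed to compounds for seven days.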

C#Cc1c(F)ccc2cc(O)cc(-c3ncc4c(N5CC6CCC(C5)N6)nc(OCC56CCCN5CC(F)C6)nc4c3F)c12 (stereo unspecified) + Cc1cnc(CNC(=O)c2c(=O)c3ccc(N4CCCN(C)CC4)nc3n3c2sc2ccccc23)cn1
IC50 (second compound 0.0316 µM): 966 nM | IC50 (second compound 0.1 µM): 494 nM | IC50 (second compound 0.316 µM): 91.8 nM | IC50 (second compound 1 µM): < 31.6 nM | IC50 (second compound 3.16 µM): < 31.6 nM | IC50 (second compound 10 µM): < 31.6 nM | viability, T/C [1]: 72% | viability, T/C [2]: 83.7% | viability, T/C [3]: 88.4% | viability, T/C [4]: 49% | viability, T/C [5]: 31.2% | viability, T/C [6]: 23.1% | viability, T/C [7]: 68.5% | viability, T/C [8]: 65.3% | viability, T/C [9]: 54% | viability, T/C [10]: 41.6% | viability, T/C [11]: 31.9% | viability, T/C [12]: 20.4% | viability, T/C [13]: 52.3% | viability, T/C [14]: 48% | viability, T/C [15]: 51.6% | viability, T/C [16]: 31.7% | viability, T/C [17]: 32.7% | viability, T/C [18]: 15.5% | viability, T/C [19]: 34.7% | viability, T/C [20]: 42.6% | viability, T/C [21]: 41.5% | viability, T/C [22]: 29% | viability, T/C [23]: 27% | viability, T/C [24]: 14.1% | viability, T/C [25]: 29% | viability, T/C [26]: 36.7% | viability, T/C [27]: 33.9% | viability, T/C [28]: 34.9% | viability, T/C [29]: 18.4% | viability, T/C [30]: 11.9% | viability, T/C [31]: 0.13% | viability, T/C [32]: 0.18% | viability, T/C [33]: 0.23% | viability, T/C [34]: 0.2% | viability, T/C [35]: 0.23% | viability, T/C [36]: 0.2%

C=CCn1c(=O)c2cnc(Nc3ccc(N4CCN(C)CC4)cc3)nc2n1-c1cccc(C(C)(C)O)n1 + Cc1cnc(CNC(=O)c2c(=O)c3ccc(N4CCCN(C)CC4)nc3n3c2sc2ccccc23)cn1
IC50 (second compound 0.0316 µM): 487 nM | IC50 (second compound 0.1 µM): 350 nM | IC50 (second compound 0.316 µM): < 31.6 nM | IC50 (second compound 1 µM): < 31.6 nM | IC50 (second compound 3.16 µM): < 31.6 nM | IC50 (second compound 10 µM): < 31.6 nM | viability, T/C [1]: 63.6% | viability, T/C [2]: 76.6% | viability, T/C [3]: 68.1% | viability, T/C [4]: 18.3% | viability, T/C [5]: 17.8% | viability, T/C [6]: 23.2% | viability, T/C [7]: 53.3% | viability, T/C [8]: 65.2% | viability, T/C [9]: 51.4% | viability, T/C [10]: 27.1% | viability, T/C [11]: 19.8% | viability, T/C [12]: 18.1% | viability, T/C [13]: 45.5% | viability, T/C [14]: 50.1% | viability, T/C [15]: 37.1% | viability, T/C [16]: 26.7% | viability, T/C [17]: 22.6% | viability, T/C [18]: 17.5% | viability, T/C [19]: 30.5% | viability, T/C [20]: 49.7% | viability, T/C [21]: 34.9% | viability, T/C [22]: 36.9% | viability, T/C [23]: 27.1% | viability, T/C [24]: 22.9% | viability, T/C [25]: 36.4% | viability, T/C [26]: 39.7% | viability, T/C [27]: 28.1% | viability, T/C [28]: 31.8% | viability, T/C [29]: 26% | viability, T/C [30]: 15.8% | viability, T/C [31]: 10% | viability, T/C [32]: 10.6% | viability, T/C [33]: 18% | viability, T/C [34]: 6.25% | viability, T/C [35]: 0.39% | viability, T/C [36]: 0.2%

CC(=O)O[C@H]1C(=O)[C@@]2(C)[C@H]([C@H](OC(=O)c3ccccc3)[C@]3(O)C[C@H](OC(=O)[C@H](O)[C@@H](NC(=O)c4ccccc4)c4ccccc4)C(C)=C1C3(C)C)[C@]1(OC(C)=O)CO[C@@H]1C[C@@H]2O + Cc1cnc(CNC(=O)c2c(=O)c3ccc(N4CCCN(C)CC4)nc3n3c2sc2ccccc23)cn1
IC50 (second compound 0.0316 µM): 37.4 nM | IC50 (second compound 0.1 µM): < 31.6 nM | IC50 (second compound 0.316 µM): < 31.6 nM | IC50 (second compound 1 µM): < 31.6 nM | IC50 (second compound 3.16 µM): < 31.6 nM | IC50 (second compound 10 µM): < 31.6 nM | viability, T/C [1]: 53.4% | viability, T/C [2]: 27.2% | viability, T/C [3]: 38.1% | viability, T/C [4]: 23.7% | viability, T/C [5]: 29.2% | viability, T/C [6]: 31.1% | viability, T/C [7]: 47.4% | viability, T/C [8]: 35.2% | viability, T/C [9]: 30.4% | viability, T/C [10]: 31.8% | viability, T/C [11]: 29.5% | viability, T/C [12]: 36.8% | viability, T/C [13]: 47% | viability, T/C [14]: 39.9% | viability, T/C [15]: 36.5% | viability, T/C [16]: 29.9% | viability, T/C [17]: 39.1% | viability, T/C [18]: 34.3% | viability, T/C [19]: 32.4% | viability, T/C [20]: 36.2% | viability, T/C [21]: 26.6% | viability, T/C [22]: 37.4% | viability, T/C [23]: 41.9% | viability, T/C [24]: 34.4% | viability, T/C [25]: 31.9% | viability, T/C [26]: 33.5% | viability, T/C [27]: 32.6% | viability, T/C [28]: 28.9% | viability, T/C [29]: 32.5% | viability, T/C [30]: 36.5% | viability, T/C [31]: 0.14% | viability, T/C [32]: 0.18% | viability, T/C [33]: 0.21% | viability, T/C [34]: 0.18% | viability, T/C [35]: 0.19% | viability, T/C [36]: 0.2%
